Measurements as given in US10987351B2, “RORgamma modulators and uses thereof” (Genfit, priority 2017, dated 2021).
Several values for one entry are separate records, joined by “and”; a condition that tells them apart may be missing. Equal entries are not always repeated.

How the values were obtained:
[1] = target: T1, RORγt ligand-binding domain (RORγt-LBD) (Homo sapiens, UniProt P51449); experiment: Time-resolved FRET (TR-FRET) RORγt coactivator assay; format: biochemical; conditions: GST-RORγ-LBD, biotinylated RIP140 peptide, 2 hours; read-out: IC50, coactivator-RORγt binding inhibition (TR-FRET)
T1 construct: 20 nM recombinantly expressed RORγ-LBD fused to GST
T1 sequence (P51449 269-508 limits assumed): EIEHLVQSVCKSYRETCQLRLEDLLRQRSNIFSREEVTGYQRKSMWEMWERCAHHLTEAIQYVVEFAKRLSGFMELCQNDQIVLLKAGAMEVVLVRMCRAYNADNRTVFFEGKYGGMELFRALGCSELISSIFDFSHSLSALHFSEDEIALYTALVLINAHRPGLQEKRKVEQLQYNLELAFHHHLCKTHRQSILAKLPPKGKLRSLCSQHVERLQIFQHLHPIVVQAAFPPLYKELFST
Text: Time-resolved FRET (TR-FRET) RORγt coactivator assay was used to identify RORγ modulator compounds with ligand-dependent coactivator displacement. The assay uses a d2-labeled anti-GST antibody, synthetic N-terminally biotinylated peptide which is derived from nuclear receptor coactivator protein RIP140, and a RORγt ligand-binding domain (RORγt-LBD) that is tagged with glutathione-S-transferase (GST). The influence of compounds on the RORγ-peptide interaction relies on the binding dependent energy transfer from a donor to an acceptor fluorophor attached to the binding partner of interest. […] For reduction of background from compound fluorescence, TR-FRET method makes use of generic fluorophore labels and time resolved detection.
The assays were done in a final volume of 20 μl in a 384 well plate in a CHAPS buffer (2 mM CHAPS; 1 mM DTT, 2 mM EDTA; 0.1% BSA), containing 20 nM recombinantly expressed RORγ-LBD fused to GST, 30 nM N-terminally biotinylated peptide, 1 nM streptavidin-terbium conjugate and 20 nM d2 labeled-anti-GST. Test compounds were diluted using 10 mM stock solution. The range of the final compound concentrations used in this test was from 0.3 nM to 30 μM (logarithmic scale). DMSO content of the samples was kept at 1%. The assay was equilibrated for 2 hours in the dark at room temperature in 384 well plates (Falcon). The signal was detected by an Ultra384 reader (TECAN). […] Compounds that promote coactivator displacement induce a concentration-dependent decrease in time-resolved fluorescent signal. Data were collected and analyzed using GraphPad Prism software (GraphPad Software V5.02, San Diego Calif. USA). IC50 in μM and Emax in % were reported for each compound.

human RORγt [2] = target: T2, human RORγt (Homo sapiens, UniProt P51449); experiment: IL-17 secretion from EL4 murine lymphoma cells overexpressing human RORγt; format: cell-based; conditions: human RORγt-transfected EL4 cells, PMA and ionomycin stimulation; read-out: IC50, inhibition of IL-17 secretion
T2 sequence (P51449 1-497 isoform P51449-2): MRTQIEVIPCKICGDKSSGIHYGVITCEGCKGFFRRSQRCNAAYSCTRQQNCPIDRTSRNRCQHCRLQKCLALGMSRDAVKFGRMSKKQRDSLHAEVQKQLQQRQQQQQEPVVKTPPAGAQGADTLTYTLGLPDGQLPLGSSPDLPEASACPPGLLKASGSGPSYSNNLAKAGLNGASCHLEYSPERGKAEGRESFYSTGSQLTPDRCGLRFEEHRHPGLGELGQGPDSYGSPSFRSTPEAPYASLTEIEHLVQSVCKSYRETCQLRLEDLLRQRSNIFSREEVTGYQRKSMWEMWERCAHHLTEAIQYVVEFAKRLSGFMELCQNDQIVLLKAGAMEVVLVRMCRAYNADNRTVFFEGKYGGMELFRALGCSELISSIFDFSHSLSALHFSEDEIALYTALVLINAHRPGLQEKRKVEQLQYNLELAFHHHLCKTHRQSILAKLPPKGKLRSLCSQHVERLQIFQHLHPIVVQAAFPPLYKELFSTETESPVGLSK
Experimental: Murine EL-4 lymphoma cell line overexpressing human RORγt was used in this functional assay to assess compound ability to inhibit IL-17 cytokine secretion.
EL-4 cells are maintained in a standard culture medium RPMI supplemented with 10% fetal calf serum, 1% sodium pyruvate, 1% essential amino acids and 1% antibiotics at 37° C. in a humidified atmosphere of 5% CO02 and 95% air. Culture medium was changed every 2 days. EL4 cells were transfected with a plasmid encoding hRORγt (sequence identical to published sequence NM 001001523). […] Briefly, 1 μg of DNA/1 million cells was served to transfect EL-4 cells. Cell/DNA suspension was transferred into certified cuvette and the electroporation of RORγt plasmid was carried out using appropriate Nucleofector® program.
Cells were seeded in 96 well plates at a density of 150000 cells/I well then treated with compounds of this invention at indicated concentrations and incubated for 24 hours at 37° C. in a humidified atmosphere of 5% CO2 and 95% air. EL-4 cells were pretreated with test compounds (RORγ modulators) and stimulated with PMA (10 ng/mL) and ionomycin (1 μM final concentration) in the presence of test compound concentrations for additional 24 h at 37° C. in a humidified atmosphere of 5% CO2 and 95% air. Subsequently, supernatants were collected (after centrifugation at 300 g for 10 minutes) to determine the concentrations of IL-17 by HTRF (CisBio, France) or ELISA (R&D Systems Europe) according to the manufacturer's protocols.

human RORγt [3] = target: T2, human RORγt; experiment: RORE Luciferase/RORγt transactivation assay; format: cell-based; parameters: the full-length cDNA of human RORγt; V5-His (encoded by the vector); expressed in transfected cells; host or cells: COS-7 (monkey kidney); conditions: COS-7 cells transfected with human IL-17 promoter luciferase reporter and RORγt plasmid, 20 h; read-out: IC50, RORγt activity inhibition (luciferase reporter)
Experimental: It is well known that RORγ binds to a conserved non-coding sequence (CNS) enhancer element in the IL-17 promoter.
Culture medium was changed every 2 days.
The 4.3 Kb human IL-17 promoter containing the RORγ-specific CNS enhancer element was PCR amplified from human genomic DNA and cloned into a pGL3-TKLuc2Cp reporter plasmid.
The luciferase reporter plasmid and the RORγt overexpression plasmid were transfected into COS-7 cell line using 4 μLJetPEI™/μg of DNA. Briefly, 150 ng of DNA (ration 1/2 between RORE-Tk Luc2Cp and cDNA RORγt or the empty vector for the negative control) was served to transfect adherent COS-7 cells in a […] culture flask, in complete medium (see cos-7 cell line culture).
Cells were then detached (using trypsin) and washed by centrifugation at 300 g for 10 minutes. Cell pellet was resuspended in serum free/phenol red free DMEM and seeded in 384 well plates at a density of 10000 cells/well and then incubated for 4 h at 37° C.
Compounds were dissolved in 100% DMSO to obtain 10 mM stock solutions. For each compound, test concentrations were diluted in serum free/phenol red free DMEM using the Genesis Freedom 200™ (TECAN) and added to the cells to obtain a 0.3% DMSO final concentration (in a final volume of 40 μL per well).
The luciferase activity was then measured with 40 μL/well steady-Glo Luciferase assay system (Promega, Madison, Wis.) and after incubation at room temperature for 30 minutes. The luminescence was estimated using the Ultra384 reader (TECAN). Data were collected and analyzed using GraphPad Prism software (GraphPad Software V5.02, San Diego Calif. USA). IC50 in μM and Emax in % were reported for each compound.

Row | SMILES | IC50 [1] | IC50 (human RORγt [2]) [nM] | IC50 (human RORγt [3]) [nM]
1 | CC(=O)N1CCN(c2ccc(CC(=O)NC(c3ccccc3)c3ccccc3N3CCCCC3)cc2)CC1 (centres unmarked) [Cpd.1, 2-[4-(4-acetylpiperazin-1-yl)phenyl]-N-{phenyl[2-(piperidin-1-yl)phenyl]methyl}acetamide] | < 100 nM | 100 to 1000 | 100 to 1000
2 | CC(=O)N1CCN(c2ccc(CC(=O)NC(CC(C)C)c3ccccc3N3CCCCC3)cc2)CC1 (centres unmarked) [Cpd.2, 2-[4-(4-acetylpiperazin-1-yl)phenyl]-N-{3-methyl-1-[2-(piperidin-1-yl)phenyl]butyl}acetamide] | 100 to 1000 nM | – | 100 to 1000
3 | Cc1ccc(C(NC(=O)Cc2cc(N3CCN(C(=O)OC(C)(C)C)CC3)ccc2F)c2ccccc2)c(N2CCCCC2)c1 (centres unmarked) [Cpd.4, tert-butyl 4-{4-fluoro-3-[({[4-methyl-2-(piperidin-1-yl)phenyl](phenyl)methyl}carbamoyl)methyl]phenyl}piperazine-1-carboxylate] | – | – | 100 to 1000
4 | Cc1ccc(C(NC(=O)Cc2cc(N3CCN(C(=O)OC(C)(C)C)CC3)ccc2C)c2ccccc2)c(N2CCCCC2)c1 (centres unmarked) [Cpd.5, tert-butyl 4-{4-methyl-3-[({[4-methyl-2-(piperidin-1-yl)phenyl](phenyl)methyl}carbamoyl)methyl]phenyl}piperazine-1-carboxylate] | 1000 to 10000 nM | – | > 10000
5 | Cc1ccc(C(NC(=O)Cc2cc(N3CCNCC3)ccc2C)c2ccccc2)c(N2CCCCC2)c1 (centres unmarked) [Cpd.6, N-{[4-methyl-2-(piperidin-1-yl)phenyl](phenyl)methyl}-2-[2-methyl-5-(piperazin-1-yl)phenyl]acetamide] | 1000 to 10000 nM | – | 1000 to 10000
6 | Cc1ccc(C(NC(=O)Cc2cc(N3CCNCC3)ccc2F)c2ccccc2)c(N2CCCCC2)c1 (centres unmarked) [Cpd.7, 2-[2-fluoro-5-(piperazin-1-yl)phenyl]-N-{[4-methyl-2-(piperidin-1-yl)phenyl](phenyl)methyl}acetamide] | 1000 to 10000 nM | – | > 10000
7 | CC(=O)N1CCN(c2ccc(F)c(CC(=O)NC(c3ccccc3)c3ccc(C)cc3N3CCCCC3)c2)CC1 (centres unmarked) [Cpd.13, 2-[5-(4-acetylpiperazin-1-yl)-2-fluorophenyl]-N-{[4-methyl-2-(piperidin-1-yl)phenyl](phenyl)methyl}acetamide] | < 100 nM | – | 100 to 1000
8 | Cc1ccc(C(NC(=O)Cc2cc(N3CCC(S(C)(=O)=O)CC3)ccc2F)c2ccc(C)o2)c(N2CCCCC2)c1 (centres unmarked) [Cpd.21, 2-[2-fluoro-5-(4-methanesulfonylpiperidin-1-yl)phenyl]-N-{[4-methyl-2-(piperidin-1-yl)phenyl](5-methylfuran-2-yl)methyl}acetamide] | < 100 nM | – | < 100
9 | Cc1ccc(C(NC(=O)Cc2cccc(N3CCC(S(C)(=O)=O)CC3)c2)c2ccc(C)o2)c(N2CCCCC2)c1 (centres unmarked) [Cpd.22, 2-[3-(4-methanesulfonylpiperidin-1-yl)phenyl]-N-{[4-methyl-2-(piperidin-1-yl)phenyl](5-methylfuran-2-yl)methyl}acetamide] | < 100 nM | – | < 100
10 | Cc1ccc(C(NC(=O)Cc2cccc(N3CCN(C)CC3)c2)c2ccc(C)o2)c(N2CCCCC2)c1 (centres unmarked) [Cpd.23, N-{[4-methyl-2-(piperidin-1-yl)phenyl](5-methylfuran-2-yl)methyl}-2-[3-(4-methylpiperazin-1-yl)phenyl]acetamide] | < 100 nM | – | 100 to 1000

The next lines start with the values.

Row | IC50 [1] | IC50 (human RORγt [2]) [nM] | IC50 (human RORγt [3]) [nM] | SMILES
11 | 1000 to 10000 nM | – | 100 to 1000 | Cc1ccc(C(NC(=O)Cc2cc(N3CCN(C(=O)OC(C)(C)C)CC3)ccc2C)c2ccc(C)o2)c(N2CCCCC2)c1 (centres unmarked) [Cpd.8, tert-butyl 4-{4-methyl-3-[({[4-methyl-2-(piperidin-1-yl)phenyl](5-methylfuran-2-yl)methyl}carbamoyl)methyl]phenyl}piperazine-1-carboxylate]
12 | 100 to 1000 nM | – | 1000 to 10000 | Cc1ccc(C(NC(=O)Cc2cc(N3CCNCC3)ccc2C)c2ccc(C)o2)c(N2CCCCC2)c1 (centres unmarked) [Cpd.9, N-{[4-methyl-2-(piperidin-1-yl)phenyl](5-methylfuran-2-yl)methyl}-2-[2-methyl-5-(piperazin-1-yl)phenyl]acetamide]
13 | 100 to 1000 nM and < 100 nM | – | 100 to 1000 | COc1ccc(C(NC(=O)Cc2cc(N3CCN(C(C)=O)CC3)ccc2C)c2ccccc2)c(N2CCCCCC2)c1 (centres unmarked) [Cpd.15, 2-[5-(4-acetylpiperazin-1-yl)-2-methylphenyl]-N-{[2-(azepan-1-yl)-4-methoxyphenyl](phenyl)methyl}acetamide]
14 | – | – | 100 to 1000 | Cc1ccc(C(NC(=O)Cc2cccc(N3CCN(S(N)(=O)=O)CC3)c2)c2ccc(C)o2)c(N2CCCCC2)c1 (centres unmarked) [Cpd.24, N-{[4-methyl-2-(piperidin-1-yl)phenyl](5-methylfuran-2-yl)methyl}-2-[3-(4-sulfamoylpiperazin-1-yl)phenyl]acetamide]
15 | 100 to 1000 nM | – | < 100 | Cc1ccc(C(NC(=O)Cc2cccc(N3CCN(C(=O)C(F)(F)F)CC3)c2)c2ccc(C)o2)c(N2CCCCC2)c1 (centres unmarked) [Cpd.25, N-{[4-methyl-2-(piperidin-1-yl)phenyl](5-methylfuran-2-yl)methyl}-2-{3-[4-(trifluoroacetyl)piperazin-1-yl]phenyl}acetamide]
